Results on 23 compounds are retold here after ChEMBL document CHEMBL6109096, “Synthesis, anti-allergic rhinitis evaluation and mechanism investigation of novel 1,2,4-triazole-enamides as CB1 R antagonist” (Eur J Med Chem, 2025).

The structures appear in SMILES notation. The source made the active and inactive calls. The rule behind the calls is not given here.

Series [1] relates to RAW264.7. The experiment in a line: Cytotoxicity against mouse RAW264.7 cells assessed as reduction in cell viability at 10 uM incubated for 24 hrs by CCK-8 assay. The format is toxicity, cell-based. The following applies: raw264.7, 24 h. (In general: Formazan colour is commonly taken as a measure of viable cells.)
The subject of series [2] is RAW264.7. The experiment in a line: Inhibition of IL-1beta (unknown origin) in mouse RAW264.7 relative to control. The format is cell-based. The following applies: dose or concentration not given here.
The subject of series [3] is RAW264.7. The experiment in a line: Inhibition of IL-6 (unknown origin) in mouse RAW264.7 relative to control. It is filed as cell-based. The following applies: dose or concentration not given here.
The subject of series [4] is RAW264.7. The experiment in a line: Downregulation of P-P65 protein expression in LPS-induced mouse RAW264.7 cells by Western blotting analysis. The format is functional, cell-based. (In western blotting, separated proteins are transferred to a membrane and probed.)
The subject of series [5] is RAW264.7. The experiment in a line: Downregulation of p-ERK protein expression in LPS-induced mouse RAW264.7 cells by Western blotting analysis. The format is functional, cell-based.
The subject of series [6] is RAW264.7. The experiment in a line: Downregulation of P-IKBalpha protein expression in LPS-induced mouse RAW264.7 cells by Western blotting analysis. The format is functional, cell-based.
For series [7], the system named is Mus musculus. Put plainly: Anti-inflammatory activity in ovalbumin-induced allergic rhinitis male Balb/c mouse model assessed as reduction in serum histamine expression at 5 mg/kg, po administered via gavage for 7 days by ELISA. The format is functional, organism-based. To be noted: time 7.0 day. Background: An ELISA detects its analyte on a solid surface through an enzyme-linked reagent.

The test system of series [8] is Mus musculus. The experiment in a line: Anti-inflammatory activity in ovalbumin-induced allergic rhinitis male Balb/c mouse model assessed as decrease in p-p38 intranuclear expression in nasal mucosal at 5 mg/kg, po administered via gavage for 7 days by immunofluorescence staining based analysis. The format is functional, organism-based. To be noted: time 7.0 day.

Series [9] relates to RAW264.7. The experiment in a line: Downregulation of p-JNK protein expression in LPS-induced mouse RAW264.7 cells by Western blotting analysis. It is filed as functional, cell-based.
Series [10] deals with RAW264.7. The experiment in a line: Downregulation of p-P38 protein expression in LPS-induced mouse RAW264.7 cells by Western blotting analysis. It is filed as functional, cell-based.
Series [11] concerns Mus musculus. Put plainly: Anti-inflammatory activity in ovalbumin-induced allergic rhinitis male Balb/c mouse model assessed as reduction in IgE expression at 5 mg/kg, po administered via gavage for 7 days (reference value: 0.268 +/- 0.045). It is filed as functional. To be noted: time 7 day.
For series [12], the system named is Mus musculus. The experiment in a line: Anti-inflammatory activity in ovalbumin-induced allergic rhinitis male Balb/c mouse model assessed as reduction in IL-4 expression in nasal lavage fluid at 5 mg/kg, po administered via gavage for 7 days by ELISA. It is filed as functional, organism-based. The following applies: time 7.0 day.
Series [13] has as its system RAW264.7. The experiment in a line: Downregulation of CB1 R expression in LPS-induced mouse RAW264.7 cells by immunofluorescence staining based analysis. It is filed as functional, cell-based.
Series [14] deals with RAW264.7. Put plainly: Downregulation of p-P38 expression in mouse RAW264.7 cells by immunofluorescence staining based analysis. It is filed as functional, cell-based.
Series [15] has as its system Mus musculus. The experiment in a line: Anti-inflammatory activity in ovalbumin-induced allergic rhinitis male Balb/c mouse assessed as reduction in number of mast cells on nasal lavage fluid at 5 mg/kg, po administered via gavage for 7 days by giemsa staining based analysis. The format is functional, organism-based. The following applies: time 7.0 day.
Series [16] deals with Mus musculus. Put plainly: Anti-inflammatory activity in ovalbumin-induced allergic rhinitis male Balb/c mouse assessed as reduction in number of eosinophils on nasal lavage fluid at 5 mg/kg, po administered via gavage for 7 days by giemsa staining based analysis. It is filed as functional, organism-based. To be noted: time 7.0 day.
Series [17] deals with Mus musculus. Put plainly: Anti-inflammatory activity in ovalbumin-induced allergic rhinitis male Balb/c mouse assessed as reduction in inflammation of nasal mucosal tissue at 5 mg/kg, po administered via gavage for 7 days by H and E staining based analysis. The format is functional, organism-based. To be noted: time 7.0 day.
Series [18] has as its system RAW264.7. The experiment in a line: Downregulation of p-P38 intranuclear expression in mouse RAW264.7 cells by immunofluorescence staining based analysis. The format is functional, cell-based.
In series [19] the test system is Mus musculus. The experiment in a line: Anti-inflammatory activity in ovalbumin-induced allergic rhinitis male Balb/c mouse model assessed as reduction in sneezing at 5 mg/kg, po administered via gavage for 7 days. The following applies: time 7.0 day. The format is functional, organism-based.
Series [20] deals with Mus musculus. The experiment in a line: Anti-inflammatory activity in ovalbumin-induced allergic rhinitis male Balb/c mouse assessed as reduction in number of goblet cells in nasal mucosal tissues at 5 mg/kg, po administered via gavage for 7 days by PAS staining based analysis. The format is functional, organism-based. The following applies: time 7.0 day.
For series [21], the system named is Mus musculus. Put plainly: Anti-inflammatory activity in ovalbumin-induced allergic rhinitis male Balb/c mouse assessed as reduction in number of cells on nasal lavage fluid at 5 mg/kg, po administered via gavage for 7 days by giemsa staining based analysis. The format is functional, organism-based. The following applies: time 7.0 day.
The subject of series [22] is Mus musculus. Put plainly: Anti-inflammatory activity in ovalbumin-induced allergic rhinitis male Balb/c mouse model assessed as reduction in nose scratching at 5 mg/kg, po administered via gavage for 7 days. The following applies: time 7.0 day. It is filed as functional, organism-based.

Take `CN(/C=C\c1ccccc1)C(=O)c1nc(-c2ccco2)n(-c2ccccc2)n1`: in [1], the Activity entry was “Non-toxic”.

For `Cc1cc(C)c(-c2nc(C(=O)N(C)/C=C\c3ccccc3)nn2-c2ccccc2)c(C)c1`, in series [1], the Activity result was “Non-toxic”.

Regarding `CCc1nc(C(=O)N(C)/C=C\c2ccccc2)nn1-c1ccccc1`, the Activity entry in series [1] was “Non-toxic”.

As to `CN(/C=C\c1ccccc1)C(=O)c1nc(-c2cccs2)n(-c2ccccc2)n1`, the Activity entry in series [1] is given as “Non-toxic”.

As usually defined, the inhibition is the relative decrease from the control value, in per cent. Take `CN(/C=C\c1ccccc1)C(=O)/C=C/c1ccccc1`: in [2], the inhibition came to 19%.

`CCCc1nc(C(=O)N(C)/C=C\c2ccccc2)nn1-c1ccccc1`: the Activity result in [1] is “Non-toxic”.

Regarding `CN(/C=C\c1ccccc1)C(=O)c1nc(-c2ccc(F)cc2)n(-c2ccccc2)n1`, the Activity entry in series [1] is “Non-toxic”.

As to `Cc1cccc(-c2nc(C(=O)N(C)/C=C\c3ccccc3)nn2-c2ccccc2)c1`, in series [1], the Activity result was “Non-toxic”.

For the compound `Cc1ccc(-c2nc(C(=O)N(C)/C=C\c3ccccc3)nn2-c2ccccc2)cc1`, the Activity result in series [1] is “Non-toxic”.

Take `CC(C)c1nc(C(=O)N(C)/C=C\c2ccccc2)nn1-c1ccccc1`: in series [1], the Activity entry is recorded as “Non-toxic”.

With `CN(/C=C\c1ccccc1)C(=O)c1nc(-c2ccc3ccccc3c2)n(-c2ccccc2)n1`, the Activity entry in [1] is reported as “Non-toxic”.

As to `CN(/C=C\c1ccccc1)C(=O)c1nc(-c2cccc3ccccc23)n(-c2ccccc2)n1`, the Activity result in series [1] is listed as “Non-toxic”. In addition, the inhibition turned out to be 86% in [3] and 74% in series [2].

For the compound `Cc1nc(C(=O)N(C)/C=C\c2ccccc2)nn1-c1ccccc1`, the Activity entry in [1] is “Non-toxic”.

Turning to `CN(/C=C\c1ccccc1)C(=O)c1ncn(-c2ccccc2)n1`, the Activity result in [1] is listed as “Non-toxic”.

Consider `CN(/C=C\c1ccccc1)C(=O)c1nc(-c2ccc(C(F)(F)F)cc2)n(-c2ccccc2)n1`, for which the Activity entry in series [1] was “Non-toxic”.

As for `CN(/C=C\c1ccccc1)C(=O)c1nc(-c2ccc(Br)cc2)n(-c2ccccc2)n1`, the Activity entry in [1] is “Non-toxic”.

With `CN(/C=C\c1ccccc1)C(=O)c1nc(-c2cccc(Cl)c2)n(-c2ccccc2)n1`, the Activity entry in series [1] is “Non-toxic”.

With `Cc1ccccc1-c1nc(C(=O)N(C)/C=C\c2ccccc2)nn1-c1ccccc1`, in series [1], the Activity result is reported as “Non-toxic”.

Consider `CN(/C=C\c1ccccc1)C(=O)c1nc(CC(C)(C)C)n(-c2ccccc2)n1`, for which the Activity entry in series [1] is reported as “Non-toxic”.

For the compound `CN(/C=C\c1ccccc1)C(=O)c1nc(-c2ccc(Cl)cc2)n(-c2ccccc2)n1`, in [1], the Activity entry was “Non-toxic”.

Take `CN(/C=C\c1ccccc1)C(=O)c1nc(-c2ccccc2Cl)n(-c2ccccc2)n1`: the Activity entry in series [1] was “Non-toxic”.

Consider `CN(/C=C\c1ccccc1)C(=O)c1nc(-c2ccccc2)n(-c2ccccc2)n1`, for which, in series [1], the Activity result is given as “Non-toxic”.

With `C[C@@H]1C[C@H]2[C@@H]3CCC4=CC(=O)C=C[C@]4(C)[C@@]3(F)[C@@H](O)C[C@]2(C)[C@@]1(O)C(=O)CO` [DEXAMETHASONE], the outcome in series [4], in [5], in series [6], in series [7], in series [8] and in [9] was Active. Also, the result in [10], in [12], in series [13], in [14], in series [15] and in series [16] was Active. Moreover, the outcome in series [17], in [18], in series [19], in [20], in [21] and in [22] was Active. For the same compound, the Activity in [11] was 0.126.
